Drawing on US9580430B2, “9H-pyrimido[4,5-B]indoles and related analogs as BET bromodomain inhibitors” (THE REGENTS OF THE UNIVERSITY OF MICHIGAN, priority 2014, dated 2017), this text covers IC50 for 21 compounds.

The target in assay [1] is T1, recombinant BRD4 BD1 (Homo sapiens, UniProt O60885).
T1 construct: for recombinant BRD4 BD1 and BRD4 BD2 proteins
Description: Competitive fluorescence-polarization (FP) binding assay, BRD4 BD1. Also: probe 1.5 nM. The settings on record: competitive FP assay; protein 10 nM, probe […]; read-out: IC50 (nM) BRD4 BD1. An outline of the steps:
(§1)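 FP competition with FAM-labelled probe (ZBA248 or BRD-1F) against preincubated protein/probe complex; BD1 at 10 nM and BD2 at 6 nM final, in 100 mM potassium phosphate pH 6.5, 0.01% Triton X-100. 30 min, room temperature. IC50 by nonlinear regression; Ki also derived, using probe Kd from protein saturation.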

Assay [2] has as its target T2, recombinant BRD4 BD2 (Homo sapiens, UniProt O60885).
T2 construct: for recombinant BRD4 BD1 and BRD4 BD2 proteins
Briefly: Competitive fluorescence-polarization (FP) binding assay, BRD4 BD2. Also: probe 1.5 nM. Conditions: competitive FP assay; protein 6 nM, probe […]; read-out: IC50 (nM) BRD4 BD2. An outline of the steps:
as §1

Assay [3] deals with MOLM-13. Briefly: Cell growth inhibition, MOLM-13 leukemia cells (CellTiter-Glo). Type of assay: cell-based. The settings on record: Homo sapiens, MOLM-13, 96 h; 4 days; read-out: IC50 (nM) MOLM-13 Cell Line (CellTiter-Glo assay). An outline of the steps: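 MOLM-13 leukemia cells treated with compounds; viability read by CellTiter-Glo luminescence after 10-20 min reagent incubation at room temperature. IC50 derived from luminescent signal.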

Assay [4] concerns MDA-MB-436. Briefly: Cell growth inhibition, MDA-MB-436 breast cancer cells (WST-8). The class given is cell-based. The settings on record: Homo sapiens, MDA-MB-436, 96 h; 4 days; read-out: IC50 (nM) MDA-MB-436 Cell Line (WST assay). An outline of the steps:
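IC50 was computed from WST-8-based cell counting in MDA-MB-436 cells, with absorbance read at 450 nm.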

`COc1cc2c(cc1-c1c(C)noc1C)[nH]c1nc(C)nc(Nc3noc(C)c3C)c12` [Cpd. No. 222, N-(7-(3,5-dimethylisoxazol-4-yl)-6-methoxy-2-methyl-9H-pyrimido[4,5-b]indol-4-yl)-4,5-dimethylisoxazol-3-amine]: the IC50 turned out to be 183 nM in assay [1], 276 nM in assay [2], 629 nM in assay [3] and 731 nM in assay [4].

As for `COc1cc2c(cc1-c1c(C)noc1C)[nH]c1nc(C)nc(Nc3cccc4ccncc34)c12` [Cpd. No. 223, 7-(3,5-dimethylisoxazol-4-yl)-N-(isoquinolin-8-yl)-6-methoxy-2-methyl-9H-pyrimido[4,5-b]indol-4-amine], the IC50 in assay [1] was determined as 47 nM; in assay [2] it was 55 nM; in assay [3] it was 115 nM; in assay [4], 152 nM.

`COc1cc2c(cc1-c1c(C)noc1C)[nH]c1nc(C)nc(Nc3cc(Cl)ccc3F)c12` [Cpd. No. 224, N-(5-chloro-2-fluorophenyl)-7-(3,5-dimethylisoxazol-4-yl)-6-methoxy-2-methyl-9H-pyrimido[4,5-b]indol-4-amine]: the IC50 stood at 105 nM in assay [1], 33 nM in assay [2], 192 nM in assay [3] and 740 nM in assay [4].

Turning to `COc1cc2c(cc1-c1c(C)noc1C)[nH]c1nc(C)nc(Nc3cc(F)cc(Cl)c3)c12` [Cpd. No. 225, N-(3-chloro-5-fluorophenyl)-7-(3,5-dimethylisoxazol-4-yl)-6-methoxy-2-methyl-9H-pyrimido[4,5-b]indol-4-amine], the IC50 in assay [1] came out at 213 nM; in assay [2], 108 nM; in assay [3], 189 nM; in assay [4] it was 315 nM.

`COc1cc2c(cc1-c1c(C)noc1C)[nH]c1nc(C)nc(Nc3ccccc3)c12` [Cpd. No. 226, 7-(3,5-dimethylisoxazol-4-yl)-6-methoxy-2-methyl-N-phenyl-9H-pyrimido[4,5-b]indol-4-amine]: the IC50 in assay [1] amounted to 21 nM; in assay [2], 20 nM; in assay [3], 94 nM; in assay [4], 91 nM.

As to `COc1cc2c(cc1-c1c(C)noc1C)[nH]c1nc(C)nc(Nc3cn(C)c4ncccc34)c12` [Cpd. No. 227, 7-(3,5-dimethylisoxazol-4-yl)-6-methoxy-2-methyl-N-(1-methyl-1H-pyrrolo[2,3-b]pyridin-3-yl)-9H-pyrimido[4,5-b]indol-4-amine], the IC50 in assay [1] turned out to be 14 nM; in assay [2], 22 nM; in assay [3], 31 nM; in assay [4], 62 nM.

With `COc1cc2c(cc1-c1c(C)noc1C)[nH]c1nc(C)nc(Nc3cccc4nc(C)ccc34)c12` [Cpd. No. 228, 7-(3,5-dimethylisoxazol-4-yl)-6-methoxy-2-methyl-N-(2-methylquinolin-5-yl)-9H-pyrimido[4,5-b]indol-4-amine], the IC50 in assay [1] came to 25 nM; in assay [2], 26 nM; in assay [3], 87 nM; in assay [4], 129 nM.

Consider `COc1cc2c(cc1-c1c(C)noc1C)[nH]c1nc(C)nc(Nc3cccc4ncsc34)c12` [Cpd. No. 229, N-(7-(3,5-dimethylisoxazol-4-yl)-6-methoxy-2-methyl-9H-pyrimido[4,5-b]indol-4-yl)benzo[d]thiazol-7-amine], for which the IC50 in assay [1] turned out to be 24 nM; in assay [2], 22 nM; in assay [3], 69 nM; in assay [4], 88 nM.

As to `COc1cc2c(cc1-c1c(C)noc1C)[nH]c1nc(C)nc(Nc3cccc(N(C)C)c3)c12` [Cpd. No. 230, N1-(7-(3,5-dimethylisoxazol-4-yl)-6-methoxy-2-methyl-9H-pyrimido[4,5-b]indol-4-yl)-N3,N3-dimethylbenzene-1,3-diamine], the IC50 in assay [1] amounted to 13 nM; in assay [2] it was 8 nM; in assay [3], 71 nM; in assay [4], 123 nM.

As for `COc1cc2c(cc1-c1c(C)noc1C)[nH]c1nc(C)nc(Nc3cccc4c3CCN4)c12` [Cpd. No. 231, 7-(3,5-dimethylisoxazol-4-yl)-N-(indolin-4-yl)-6-methoxy-2-methyl-9H-pyrimido[4,5-b]indol-4-amine], the IC50 in assay [1] was 35 nM; in assay [2], 44 nM; in assay [3] it was 28 nM; in assay [4] it was 79 nM.

`COc1cc2c(cc1-c1c(C)noc1C)[nH]c1nc(C)nc(Nc3ccc4c(c3)N(C)CC4)c12` [Cpd. No. 232, 7-(3,5-dimethylisoxazol-4-yl)-6-methoxy-2-methyl-N-(1-methylindolin-6-yl)-9H-pyrimido[4,5-b]indol-4-amine]: the IC50 in assay [1] turned out to be 29 nM; in assay [2] it was 52 nM; in assay [3], 62 nM; in assay [4], 238 nM.

In the case of `COc1cc2c(cc1-c1c(C)noc1C)[nH]c1nc(C)nc(Nc3ccc4cc[nH]c4c3)c12` [Cpd. No. 233, 7-(3,5-dimethylisoxazol-4-yl)-N-(1H-indol-6-yl)-6-methoxy-2-methyl-9H-pyrimido[4,5-b]indol-4-amine], the IC50 is 69 nM in assay [1], 38 nM in assay [2], 101 nM in assay [3] and 222 nM in assay [4].

For the compound `COc1cc2c(cc1-c1c(C)noc1C)[nH]c1nc(C)nc(Nc3cccc4c3CCO4)c12` [Cpd. No. 234, N-(2,3-dihydrobenzofuran-4-yl)-7-(3,5-dimethylisoxazol-4-yl)-6-methoxy-2-methyl-9H-pyrimido[4,5-b]indol-4-amine], the IC50 in assay [1] was 25 nM; in assay [2], 25 nM; in assay [3], 34 nM; in assay [4] it was 139 nM.

As for `COc1cc2c(cc1-c1c(C)noc1C)[nH]c1nc(C)nc(Nc3cccc4c3cnn4C)c12` [Cpd. No. 235, 7-(3,5-dimethylisoxazol-4-yl)-6-methoxy-2-methyl-N-(1-methyl-1H-indazol-4-yl)-9H-pyrimido[4,5-b]indol-4-amine], the IC50 amounted to 41 nM in assay [1], 52 nM in assay [2], 74 nM in assay [3] and 146 nM in assay [4].

Turning to `COc1cc2c(cc1-c1c(C)noc1C)[nH]c1nc(C)nc(Nc3cccc4c3ccn4C)c12` [Cpd. No. 236, 7-(3,5-dimethylisoxazol-4-yl)-6-methoxy-2-methyl-N-(1-methyl-1H-indol-4-yl)-9H-pyrimido[4,5-b]indol-4-amine], the IC50 in assay [1] stood at 14 nM; in assay [2], 59 nM; in assay [3] it was 49 nM; in assay [4] it was 117 nM.

Take `COc1cc2c(cc1-c1c(C)noc1C)[nH]c1nc(C)nc(Nc3cc(C)cc(C)c3)c12` [Cpd. No. 237, 7-(3,5-dimethylisoxazol-4-yl)-N-(3,5-dimethylphenyl)-6-methoxy-2-methyl-9H-pyrimido[4,5-b]indol-4-amine]: the IC50 in assay [1] was 10 nM; in assay [2] it was 5 nM; in assay [3], 41 nM; in assay [4] it was 72 nM.

On to `COc1cc2c(cc1-c1c(C)noc1C)[nH]c1nc(C)nc(Nc3cc(C)ccc3C)c12` [Cpd. No. 238, 7-(3,5-dimethylisoxazol-4-yl)-N-(2,5-dimethylphenyl)-6-methoxy-2-methyl-9H-pyrimido[4,5-b]indol-4-amine], for which the IC50 in assay [1] came out at 5 nM; in assay [2] it was 3 nM; in assay [3], 39 nM; in assay [4] it was 61 nM.

Take `COc1cc2c(cc1-c1c(C)noc1C)[nH]c1nc(C)nc(Nc3c(C4CC4)nn(C)c3C3CC3)c12` [Cpd. No. 239, N-(3,5-dicyclopropyl-1-methyl-1H-pyrazol-4-yl)-7-(3,5-dimethylisoxazol-4-yl)-6-methoxy-2-methyl-9H-pyrimido[4,5-b]indol-4-amine]: the IC50 came out at 19 nM in assay [1], 28 nM in assay [2], 22 nM in assay [3] and 43 nM in assay [4].

As for `CCc1nn(C)c(CC)c1Nc1nc(C)nc2[nH]c3cc(-c4c(C)noc4C)c(OC)cc3c12` [Cpd. No. 240, N-(3,5-diethyl-1-methyl-1H-pyrazol-4-yl)-7-(3,5-dimethylisoxazol-4-yl)-6-methoxy-2-methyl-9H-pyrimido[4,5-b]indol-4-amine], the half-maximal inhibitory concentration (IC50) turned out to be 13 nM in assay [1], 20 nM in assay [2], 20 nM in assay [3] and 46 nM in assay [4].

On to `CCc1nn(CC)c(CC)c1Nc1nc(C)nc2[nH]c3cc(-c4c(C)noc4C)c(OC)cc3c12` [Cpd. No. 241, 7-(3,5-dimethylisoxazol-4-yl)-6-methoxy-2-methyl-N-(1,3,5-triethyl-1H-pyrazol-4-yl)-9H-pyrimido[4,5-b]indol-4-amine], for which the IC50 turned out to be 16 nM in assay [1], 29 nM in assay [2], 33 nM in assay [3] and 76 nM in assay [4].

In the case of `COc1cc2c(cc1-c1c(C)noc1C)[nH]c1nc(C)nc(Nc3c(C(C)C)nn(C)c3C(C)C)c12` [Cpd. No. 242, N-(3,5-diisopropyl-1-methyl-1H-pyrazol-4-yl)-7-(3,5-dimethylisoxazol-4-yl)-6-methoxy-2-methyl-9H-pyrimido[4,5-b]indol-4-amine], the IC50 worked out at 9 nM in assay [1], 12 nM in assay [2], 24 nM in assay [3] and 47 nM in assay [4].
